Data published in PMC6066988 (Frontiers in Microbiology, 2018).
Where two headings read alike, the source gives them in different places.

What was measured:
[1] = molecular target: T1, DNA topoisomerase I (MtbTopoI) (Mycobacterium tuberculosis, UniProt P9WG49); test: […]; also inhibits cleavage of a 32-mer single-stranded DNA; format: biochemical
T1 construct: gene topA

[2] = molecular target: T1, DNA topoisomerase I (MtbTopoI); format: biochemical

T1 sequence (P9WG49 whole entry): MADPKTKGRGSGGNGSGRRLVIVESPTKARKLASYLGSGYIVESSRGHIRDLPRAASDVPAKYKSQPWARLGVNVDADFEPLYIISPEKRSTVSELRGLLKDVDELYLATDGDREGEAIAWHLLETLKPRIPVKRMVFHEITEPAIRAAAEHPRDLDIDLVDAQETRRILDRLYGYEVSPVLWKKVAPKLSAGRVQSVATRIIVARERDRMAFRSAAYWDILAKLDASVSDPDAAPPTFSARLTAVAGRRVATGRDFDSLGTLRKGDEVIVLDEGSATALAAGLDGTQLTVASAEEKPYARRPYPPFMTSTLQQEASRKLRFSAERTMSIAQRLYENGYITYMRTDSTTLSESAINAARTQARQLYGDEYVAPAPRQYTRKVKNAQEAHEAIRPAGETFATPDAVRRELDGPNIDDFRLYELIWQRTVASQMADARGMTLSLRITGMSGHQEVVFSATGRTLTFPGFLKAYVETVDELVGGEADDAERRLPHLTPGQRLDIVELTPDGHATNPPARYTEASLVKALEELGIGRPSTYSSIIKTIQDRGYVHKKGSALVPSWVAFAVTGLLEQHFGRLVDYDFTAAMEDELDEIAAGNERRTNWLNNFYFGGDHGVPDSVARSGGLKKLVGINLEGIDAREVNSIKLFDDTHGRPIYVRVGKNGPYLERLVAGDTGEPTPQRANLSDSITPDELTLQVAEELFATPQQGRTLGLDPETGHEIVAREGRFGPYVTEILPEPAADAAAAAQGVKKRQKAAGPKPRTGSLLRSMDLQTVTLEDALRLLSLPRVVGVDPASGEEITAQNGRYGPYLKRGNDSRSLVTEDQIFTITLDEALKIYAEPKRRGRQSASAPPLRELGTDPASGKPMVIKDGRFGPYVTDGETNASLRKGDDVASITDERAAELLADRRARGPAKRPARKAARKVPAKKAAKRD

Structure (SMILES) | IC50 [1] | IC50 [2]
CNCCc1cc2c(c3c1ccc1cc4c(cc13)OCO4)OCO2 [SCN, seconeolitsine] | 8.4 ± 0.3 µM | 
CN(C)CCc1cc2c(c3c1ccc1cc4c(cc13)OCO4)OCO2 [N-SCN, N-methyl-seconeolitsine] |  | 5.6 ± 0.8 µM
